What was measured:
Type in all cases: functional, cell-based
[1] = Cytotoxicity against human PAXF 1657L cells by propidium iodide staining
[2] = Cytotoxicity against human MEXF 1341L cells by propidium iodide staining
RKO = assay: Cytotoxicity against human RKO cells by propidium iodide staining
LNCaP = assay: Cytotoxicity against human LNCAP cells by propidium iodide staining
[3] = Cytotoxicity against human UXF 1138L cells by propidium iodide staining
MDA-MB-231 = assay: Cytotoxicity against human MDA-MB-231 cells by propidium iodide staining
[4] = Cytotoxicity against human CXF 269L cells by propidium iodide staining
SAOS-2 = assay: Cytotoxicity against human Saos2 cells by propidium iodide staining
[5] = Cytotoxicity against human LXFL 1121L cells by propidium iodide staining
[6] = Cytotoxicity against human PXF 698L cells by propidium iodide staining
[7] = Cytotoxicity against human NIH:OVCAR3 cells by propidium iodide staining; conditions: OVCAR-3
[8] = Cytotoxicity against human LXFA 629L cells by propidium iodide staining
[9] = Cytotoxicity against human MAXF 401NL cells by propidium iodide staining
PANC-1 = assay: Cytotoxicity against human PANC1 cells by propidium iodide staining
HT-29 = assay: Cytotoxicity against human HT-29 cells by propidium iodide staining
[10] = Cytotoxicity against human MEXF 462NL cells by propidium iodide staining
HCT-116 = assay: Cytotoxicity against human HCT116 cells by propidium iodide staining
[11] = Cytotoxicity against human OVXF 899L cells by propidium iodide staining
[12] = Cytotoxicity against human RXF 486L cells by propidium iodide staining
[13] = Cytotoxicity against human LXFA 289L cells by propidium iodide staining
[14] = Cytotoxicity against human RXF 1781L cells by propidium iodide staining
[15] = Cytotoxicity against human LIXF 575L cells by propidium iodide staining
[16] = Cytotoxicity against human PXF 1118L cells by propidium iodide staining
TE-671 = assay: Cytotoxicity against human TE671 cells by propidium iodide staining
[17] = Cytotoxicity against human MEXF 276L cells by propidium iodide staining; conditions: MEXF276L
CWR22R = assay: Cytotoxicity against human 22Rv1 cells by propidium iodide staining
MCF7 = assay: Cytotoxicity against human MCF7 cells by propidium iodide staining
[18] = Cytotoxicity against human BXF 1352L cells by propidium iodide staining
[19] = Cytotoxicity against human PAXF 546L cells by propidium iodide staining
[20] = Cytotoxicity against human DIFI cells by propidium iodide staining
[21] = Cytotoxicity against human PC3M cells by propidium iodide staining; conditions: PC-3M
[22] = Cytotoxicity against human PXF 1752L cells by propidium iodide staining
NCI-H460 = assay: Cytotoxicity against human NCI-H460 cells by propidium iodide staining
[23] = Cytotoxicity against human LXFL 529L cells by propidium iodide staining
CAL-27 = assay: Cytotoxicity against human CAL27 cells by propidium iodide staining
[24] = Cytotoxicity against human RXF 393NL cells by propidium iodide staining
[25] = Cytotoxicity against human LXFA 526L cells by propidium iodide staining
[26] = Cytotoxicity against human BXF 1218L cells by propidium iodide staining
MKN-45 = assay: Cytotoxicity against human MKN45 cells by propidium iodide staining
[27] = Cytotoxicity against human GXF251L cells by propidium iodide staining; conditions: GXF 251L
DU-145 = assay: Cytotoxicity against human DU145 cells by propidium iodide staining
T-24 = assay: Cytotoxicity against human T24 cells by propidium iodide staining

Compound: CCCCCCCCCCCC/C=C\N(NC(=O)COC)C(=O)CCCCCCCCC [HYDRAZIDOMYCIN A]
- IC50 [1]: 1910 nM
- IC50 [2]: 936 nM
- IC50 (RKO): 598 nM
- IC50 (LNCaP): 957 nM
- IC50 [3]: 893 nM
- IC50 (MDA-MB-231): 286 nM
- IC50 [4]: 222 nM
- IC50 (SAOS-2): 1820 nM
- IC50 [5]: 2310 nM
- IC50 [6]: 982 nM
- IC50 [7]: 1100 nM
- IC50 [8]: 247 nM
- IC50 [9]: 471 nM
- IC50 (PANC-1): 933 nM
- IC50 (HT-29): 464 nM
- IC50 [10]: 765 nM
- IC50 (HCT-116): 758 nM
- IC50 [11]: 1340 nM
- IC50 [12]: 1620 nM
- IC50 [13]: 1100 nM
- IC50 [14]: 982 nM
- IC50 [15]: 349 nM
- IC50 [16]: 2400 nM
- IC50 (TE-671): 898 nM
- IC50 [17]: 1590 nM
- IC50 (CWR22R): 882 nM
- IC50 (MCF7): 782 nM
- IC50 [18]: 2300 nM
- IC50 [19]: 660 nM
- IC50 [20]: 782 nM
- IC50 [21]: 105 nM
- IC50 [22]: 1190 nM
- IC50 (NCI-H460): 2310 nM
- IC50 [23]: 2120 nM
- IC50 (CAL-27): 716 nM
- IC50 [24]: 1110 nM
- IC50 [25]: 1650 nM
- IC50 [26]: 2430 nM
- IC50 (MKN-45): 676 nM
- IC50 [27]: 144 nM
- IC50 (DU-145): 539 nM

Compound: CCCCCCC/C=C\CCCCC/C=C\N(NC(=O)COC)C(=O)CCCCCCCCC [HYDRAZIDOMYCIN B]
- IC50 [1]: 20400 nM
- IC50 [2]: 14900 nM
- IC50 (RKO): 13800 nM
- IC50 (LNCaP): 14100 nM
- IC50 [3]: 18200 nM
- IC50 (MDA-MB-231): 5530 nM
- IC50 [4]: 5940 nM
- IC50 (SAOS-2): 18000 nM
- IC50 [5]: 17400 nM
- IC50 [6]: 14300 nM
- IC50 [7]: 18500 nM
- IC50 [8]: 1410 nM
- IC50 [9]: 876 nM
- IC50 (PANC-1): 10000 nM
- IC50 (HT-29): 6540 nM
- IC50 [10]: 20400 nM
- IC50 (HCT-116): 19400 nM
- IC50 [11]: 19100 nM
- IC50 [12]: 21200 nM
- IC50 [13]: 12600 nM
- IC50 [14]: 10200 nM
- IC50 [15]: 7390 nM
- IC50 [16]: 30000 nM
- IC50 (TE-671): 18200 nM
- IC50 [17]: 18300 nM
- IC50 (CWR22R): 15600 nM
- IC50 (MCF7): 11000 nM
- IC50 (T-24): 9190 nM
- IC50 [18]: 15100 nM
- IC50 [19]: 10800 nM
- IC50 [20]: 10200 nM
- IC50 [21]: 1730 nM
- IC50 [22]: 12700 nM
- IC50 (NCI-H460): 17200 nM
- IC50 [23]: 17300 nM
- IC50 (CAL-27): 12700 nM
- IC50 [24]: 11000 nM
- IC50 [25]: 7070 nM
- IC50 [26]: 19300 nM
- IC50 (MKN-45): 11600 nM
- IC50 [27]: 1540 nM
- IC50 (DU-145): 7220 nM

From ChEMBL document CHEMBL1833908, “Hydrazidomycins, cytotoxic alkylhydrazides from Streptomycesatratus” (Bioorg Med Chem Lett, 2011)
